Data published in US9963462B2 (priority 2015, dated 2018).

Tests used:
[1] = molecular target: SNAP-hSPR (sepiapterin reductase, SPR) (Homo sapiens, UniProt P35270); test: biochemical; type: binding; settings: terbium labelled SNAP-hSPR / SSZ labelled SNAP-EGFP; read-out: hTR-FRET IC50
Description: TR-FRET Assay: A TR-FRET (homogeneous, time-resolved, fluorescence resonance energy transfer) assay was used to assess activity of compounds following standard assay conditions. […] Compounds were screened at different concentrations and IC50 values calculated.
Terbium labelled SNAP-hSPR and SSZ (sulfasalazine) labelled SNAP-EGFP were used as the protein pair in this assay. Compounds were screened at different concentrations, and 1050 and Kd values calculated.

[2] = test system: BH4 production in human peripheral blood mononuclear cells (PBMCs); test: hPBMC assay, inhibition of BH4 production by LC-MS (anti-CD3/anti-CD28 stimulated); type: cell-based; settings: PBMC, read-out: hPBMC IC50

SNAP-hSPR (sepiapterin reductase, SPR), sequence (P35270 whole entry): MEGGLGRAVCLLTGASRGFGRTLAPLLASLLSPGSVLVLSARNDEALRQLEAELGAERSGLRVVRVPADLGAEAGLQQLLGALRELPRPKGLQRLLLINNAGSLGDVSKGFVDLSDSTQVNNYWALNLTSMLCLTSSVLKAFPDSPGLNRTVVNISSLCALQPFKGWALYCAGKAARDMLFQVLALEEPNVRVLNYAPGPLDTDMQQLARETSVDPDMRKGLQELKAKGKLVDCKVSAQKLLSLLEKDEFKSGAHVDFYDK

SMILES | IC50 [1] [nM] | IC50 [2] [nM]
Cc1c(C(=O)N2CC(N3CC(C(F)(F)F)C3)C2)cnn1-c1nn2cccc2c(=O)[nH]1 [Q-1082] | 4 | 120
Cc1c(C(=O)N2C3CC2CN(CC(F)(F)F)C3)cnn1-c1nn2cccc2c(=O)[nH]1 [Q-1083] | 1 | 68
Cc1c(C(=O)N2CCC(c3nc(-c4cccnc4)cs3)CC2)cnn1-c1nc2c(c(=O)[nH]1)CCC2 [Q-1084] | 2 | 13
Cc1c(C(=O)N2CCC(C(=O)N3CCC3)(C(F)(F)F)CC2)cnn1-c1nn2cccc2c(=O)[nH]1 [Q-1085] | 1 | 63
Cc1c(C(=O)N2CCC(C(=O)N3CCCCC3)(C(F)(F)F)CC2)cnn1-c1nn2cccc2c(=O)[nH]1 [Q-1086] | 1 | 84
Cc1c(C(=O)N2CCC(C3(C#N)CCC3)CC2)cnn1-c1nc2c(c(=O)[nH]1)CCC2 [Q-1087] | 2 | 29
Cc1c(C(=O)N2CCC3(CC2)CC3C(=O)N2CCC2)cnn1-c1nn2cccc2c(=O)[nH]1 (stereo not shown) [Q-1088] | 4 | 290
Cc1c(C(=O)N2CCC3(CC2)CC3C(=O)N2CCC2)cnn1-c1nc2c(c(=O)[nH]1)CCC2 (stereo not shown) [Q-1089] | 3 | 350
Cc1c(C(=O)N2CCC(c3nc(C(N)=O)cs3)CC2)cnn1-c1nc2c(c(=O)[nH]1)CCC2 [Q-1091] | 2 | 130
Cc1c(C(=O)N2CCC(O)(C3(C#N)CC3)CC2)cnn1-c1nn2cccc2c(=O)[nH]1 [Q-1092] | 1 | 330
Cc1c(C(=O)N2CCC(c3nc(C#N)cs3)CC2)cnn1-c1nn2cccc2c(=O)[nH]1 [Q-1093] | 1 | 95
Cc1c(C(=O)N2C3CCC2CN(C2CC2)C3)cnn1-c1nn2cccc2c(=O)[nH]1 [Q-1094] | 1 | 99
C=C(C1CCN(C(=O)c2cnn(-c3nn4cccc4c(=O)[nH]3)c2C)CC1)C(F)(F)F [Q-1095] | 1 | 27
C=C(C1CCN(C(=O)c2cnn(-c3nc4c(c(=O)[nH]3)CCC4)c2C)CC1)C(F)(F)F [Q-1096] | 1 | 18
Cc1c(C(=O)N2CCC(c3nc(-c4cccnc4)cs3)CC2)cnn1-c1nn2cccc2c(=O)[nH]1 [Q-1097] | 1 | 24
Cc1c(C(=O)N2CCC(CCCF)C2)cnn1-c1nn2cccc2c(=O)[nH]1 (stereo not shown) [Q-1098] | 1 | 210
Cc1c(C(=O)N2CCC(c3nc(-c4ccccn4)cs3)CC2)cnn1-c1nn2cccc2c(=O)[nH]1 [Q-1099] | 1 | 60
Cc1c(C(=O)N2CCC(c3nc(-c4ccccn4)cs3)CC2)cnn1-c1nc2c(c(=O)[nH]1)CCC2 [Q-1100] | 1 | 31
Cc1c(C(=O)N2CCC(c3nc(-c4ccncc4)cs3)CC2)cnn1-c1nn2cccc2c(=O)[nH]1 [Q-1101] | 1 | 41
CCC(C#N)C1(F)CCN(C(=O)c2cnn(-c3nc4c(c(=O)[nH]3)CCC4)c2C)CC1 (stereo not shown) [Q-1102] | 1 | 58
CCC(C#N)C1=CCN(C(=O)c2cnn(-c3nc4c(c(=O)[nH]3)CCC4)c2C)CC1 (stereo not shown) [Q-1103] | 1 | 100
Cc1c(C(=O)N2CCC(c3nc(C#N)cs3)CC2)cnn1-c1nc2c(c(=O)[nH]1)CCC2 [Q-1104] | 3 | 110
Cc1c(C(=O)N2CCC(c3ccc(F)nc3)CC2)cnn1-c1nn2cccc2c(=O)[nH]1 [Q-1105] | 1 | 18
Cc1c(C(=O)N2CC3CC(C2)N3CC(F)(F)F)cnn1-c1nn2cccc2c(=O)[nH]1 [Q-1106] | 1 | 93
Cc1c(C(=O)N2C3CCC2CN(c2nccs2)C3)cnn1-c1nn2cccc2c(=O)[nH]1 [Q-1107] | 1 | 58
Cc1c(C(=O)N2CCC(c3nc(C(F)(F)F)cs3)CC2)cnn1-c1nn2cccc2c(=O)[nH]1 [Q-1108] | 1 | 50
